Data from patent US6503912B1, “Substituted guanidine derivatives” (Bayer Aktiengesellschaft, priority 1998, dated 2003).

Assay: logP determination by HPLC (EEC directive 79/831 Annex V. A8)
Conditions: HPLC gradient method, acetonitrile/0.1% aqueous phosphoric acid
Experimental: [logP=The logP values were determined in accordance with EEC directive 79/831 Annex V. A8 by HPLC (gradient method, acetonitrile/0.1% aqueous phosphoric acid]

O=C(OCN1CCN(Cc2ccc(Cl)nc2)C1=N[N+](=O)[O-])C1CC1 [Example 59]
logP (pH = 2.3): 1.57
